In one data set the test system is Mouse kidney M-1 cells. Briefly: Ussing Chamber assay, short circuit current in M-1 cells. Format: cell-based. Conditions: inhibition of amiloride sensitive short circuit current (I_sc), compounds applied to the apical solution, 37° C. Here is the method:
Ussing Chamber: Mouse kidney M-1 cells were cultivated in DMEM containing 5% FCS and 5 μM dexamethasone for 10 to 12 days on polyester transwell filters. Filters were inserted into a teflon-coated well-plate which fit into the ussing chamber system. Prior to measurement the medium of M-1 cells was replaced with Caco-2 transport buffer (Invitrogen, Germany). During measurements, the Ussing chamber temperature was kept at 37° C. Short circuit currents (I_sc) were measured in the voltage-clamp mode using an amplifier with the software package Lab View for data acquisition and analysis. The transepithelial electrical resistance (TEER) was determined by the application of voltage steps of ±5 mV every 5 sec. Compounds were administered at a final concentration of 3 μM or at increasing concentrations (e.g. 1-3-10 μM) to the apical solution. At the end of each experiment the amiloride sensitive I_SC was measured by adding 3 μM amiloride to the apical compartment. Results are expressed as inhibition in percent of the amiloride effect or as IC50.
With the example compounds given above, the following IC50 values given in Table 1 were determined in the Ussing Chamber assay: […]

Data set [1] can be described thus: Permeability and efflux in CALU-3 cells. Format: in vitro ADME. The settings on record: human, Papp basal-to-apical, CALU-3 monolayers, pH 7.4, 37° C., 10 μM compound, read-out: P BA. Here is the method:
Permeability and Efflux in CALU-3 Cells:
Permeability measurements across polarized, confluent CALU-3 cell monolayers grown on permeable filter supports are used to provide information on the potential of a compound to pass the lung epithelium.
CALU-3 cells (1-2×10^5 cells/1 cm^2 area) are seeded on filter inserts (Costar transwell polycarbonate filters, 0.4 μm pore size) and cultured (DMEM) for 10-12 days until tight monolayers are formed. Compounds of interest are dissolved in appropriate solvent (DMSO, 10 mM stock solution). Stock solutions are diluted with HTP-4 buffer (128.13 mM NaCl, 5.36 mM KCl, 1 mM MgSO4, 1.8 mM CaCl2, 4.17 mM NaHCO3, 1.19 mM Na2HPO4×7H2O, 0.41 mM NaH2PO4×H2O, 15 mM HEPES, 20 mM glucose, 0.25% BSA, pH 7.4) to prepare the transport solutions (10 μM compound, final DMSO<=0.5%). The transport solution (TL) is applied to the apical or basolateral donor side for measuring A-B or B-A permeability (3 filter replicates), respectively. The receiver side contains the same buffer as the donor side. After 30 min of accommodation, samples are collected at the start t0=0 min and at the end of the experiment tn=90 min from the donor and at 0, 30, 60, and 90 min also from the receiver chamber. Volume removed is replenished by HTP-4 buffer. The compound concentration in the samples is measured by HPLC-MS/MS or scintillation counting. The permeability coefficient (Papp) and efflux ratio are calculated according to: Papp [cm/s]=(concentration receiver [nM]*volume receiver [mL]/time interval [sec])*(1/filter area)*(1/donor concentration [nM]) Efflux ratio or Uptake ratio=Papp,BA/Papp,AB

Read-outs that look alike come from different tables or passages of the source.

In general, IC50 refers to the concentration that inhibits the measured activity by half. A low value points to higher potency. As to `N/C(=N\C(=O)c1nc(Cl)c(N)nc1N)N[C@H]1CC[C@H](NC(=O)CN(CC(=O)O)CC(=O)O)CC1` [Example 2.1], inhibition in the data set on Mouse kidney M-1 cells was half-maximal at 304 nM (IC50). The molecule `COC(=O)CN(C)[C@H]1CC[C@H](N/C(N)=N/C(=O)c2nc(Cl)c(N)nc2N)CC1` [Example 1.1] gave an IC50 in the data set with Mouse kidney M-1 cells of 7 nM. `C[N+]1(C)CCN(CC(=O)N[C@H]2CC[C@H](N/C(N)=N/C(=O)c3nc(Cl)c(N)nc3N)CC2)CC1.[I-]` [Example 3.1]: the concentration for half-maximal inhibition (IC50) in the data set with Mouse kidney M-1 cells came to 25 nM. Besides, in data set [1] (exponent E−07), the Papp B→A at 90 min, 10 μM was 0.229 ×10⁻⁶ cm/s. In the data set with Mouse kidney M-1 cells, `CC(C)(C)OC(=O)c1ccc(C(=O)N[C@H]2CC[C@H](N/C(N)=N/C(=O)c3nc(Cl)c(N)nc3N)CC2)cc1` [Example 5.1] returned an IC50 of 10 nM.

In the case of `N/C(=N\C(=O)c1nc(Cl)c(N)nc1N)N[C@H]1CC[C@H](N)CC1` [Example 6.2], the 50% inhibitory concentration (IC50) in the data set with Mouse kidney M-1 cells is 6 nM. In data set [1] (exponent E−07), the Papp B→A at 90 min, 10 μM is under 0.272 ×10⁻⁶ cm/s. The like results for `C[C@@H](N)C(=O)N[C@H]1CC[C@H](N/C(N)=N/C(=O)c2nc(Cl)c(N)nc2N)CC1.O=C(O)C(F)(F)F` [Example 6.1] were, in that order, 34 nM and 0.225 ×10⁻⁶ cm/s. In the data set with Mouse kidney M-1 cells, `CN1CCN(S(=O)(=O)N[C@H]2CC[C@H](N/C(N)=N/C(=O)c3nc(Cl)c(N)nc3N)CC2)CC1.O=C(O)C(F)(F)F` [Example 8] came in with a 50% inhibitory concentration (IC50) of 25 nM. For the same molecule, the Papp B→A at 90 min, 10 μM in data set [1] (exponent E−07) was found to be 0.354 ×10⁻⁶ cm/s. `CN(C)CCCN[C@H]1CC[C@H](N/C(N)=N/C(=O)c2nc(Cl)c(N)nc2N)CC1` [Example 4.1]: the IC50 with Mouse kidney M-1 cells was 31 nM. Moreover, in data set [1] (exponent E−06 printed in the row below (r3)), the Papp B→A at 90 min, 10 μM was under 2.72 ×10⁻⁶ cm/s. With `N=C(N)N[C@H]1CC[C@H](N/C(N)=N/C(=O)c2nc(Cl)c(N)nc2N)CC1` [Example 7], the midpoint of inhibition with Mouse kidney M-1 cells, the IC50, lay at 10 nM.

The values are drawn from patent US9126982B2, “Heterocyclic compounds, medicaments containing them, use and processes for the preparation thereof” (Boehringer Ingelheim International GmbH, priority 2013, dated 2015).
